Results taken from patent US9074289B2, “Environmentally friendly corrosion inhibitor” (NALCO COMPANY, priority 2011, dated 2015).

Experiments:
[1] = Acute aquatic toxicity, ISO 146669; settings: Acartia tonsa, in vivo, Method: ISO 146669
Description: (§1) (i) acute toxicity to the most sensitive marine species (skeletonema costatum) must be greater than EC50 of 10 mg/L; (ii) bioaccumulation potential (as indicated by Log Pow, the octanol-water partition coefficient) must be below 3 or the molecular weight must be greater than 700; and (iii) biodegradation in 28 days is greater than 60%. Corrosion inhibitor intermediates such as the quaternary ammonium salt were tested for their level of acute aquatic toxicity (Table 9), Log Pow (Table 10), and their ability to biodegrade in 28 days (Table 10).

[2] = Biodegradation in 28 days, Marine BODIS; settings: Method: Marine BODIS
Text: Biodegradation is the chemical breakdown of a material by microorganisms into nutrients that can be used by other organisms. Generally, a complex molecule can be broken down into carbon dioxide, water, microbial biomass, and/or inorganic salts. A biodegradation of 10% or greater is preferred, biodegradation of 20% or greater is more preferred, and a biodegradation of 60% or greater is most preferred.
as §1

[3] = test system: Corophium volutator; assay: Acute aquatic toxicity, PARCOM; format: in vivo; settings: Method: PARCOM
Description: as §1

[4] = Log Pow (octanol-water partition coefficient), OECD 117; format: physicochemical; settings: n-octanol/water; Method: OECD 117
Text: The bioaccumulation potential of chemical substances has generally been determined from the n-octanol/water partition coefficient (expressed as log Pow) and the bioconcentration factor. The log Pow represents the ratio of a material that dissolves or disperses in octanol (the oil phase) versus water. This coefficient is used as a chemical surrogate for bioaccumulative potential. A log Pow of less than ten is preferred, a log Pow of less than six is more preferred, and a log Pow of less than three is most preferred.
as §1

[5] = test system: Skeletonema costatum; assay: Acute aquatic toxicity, ISO 10253; format: in vivo; settings: Hec50, 72 h, Method: ISO 10253
Description: as §1

| Structure (SMILES) | LC50 at 48 h [1] | Biodegradation (28 days) [2] | Corophium volutator 10 d LC50 [3] | chromatographic logP [4] | EC50 [5] |
| --- | --- | --- | --- | --- | --- |
| NC(=O)c1ccc[n+](Cc2cccc3ccccc23)c1.[Cl-] [Compound 4] | 105 µg/mL | 40%^7 | 6116.15 mg/kg | 2.1 |  |
| CCOC(=O)c1cc[n+](Cc2cccc3ccccc23)cc1.[Cl-] [Compound 1] |  |  |  | 2.7 | > 10 µg/mL |
